Reference: US20130203706A1, “COMPOUNDS AND METHODS FOR THE TREATMENT OR PREVENTION OF FLAVIVIRUS INFECTIONS” (Vertex Pharmaceuticals Incorporated, priority 2011, published 2013)

Test: PK parameters of prodrugs after oral gavage to rats (plasma levels of prodrug and active metabolite by LC/MS/MS)
Assay type: in vivo
Conditions: orally by gavage, 3 mg/kg, 0.5% MC/0.5% Tween 80/99% water, plasma up to 24 hrs post dose, FIGS. 3-5
Protocol: The prodrug whose PK parameters are to be determined can be formulated as a solution in 0.5% MC/0.5% Tween 80/99% water and administered orally by gavage to rats at a dose of 3 mg/kg. Rats are weighed the day before the study. Rat plasma is sampled predose and at 15, 30 min, 1, 2, 3, 4, 6, 8, 12 and 24 hrs post dose using Instech automatic blood sampling equipment. Blood is collected in tubes containing K2-EDTA and 110 uL plasma are extracted for analysis. Rats are fed ad lib and standard IACUC and SOP protocols are followed. Plasma samples and dose samples are analyzed using LC/MS/MS for both the prodrug compound and the active metabolite. PK parameters for both analytes for each subject are calculated using the measured dose of prodrug. The PK parameters of a prodrug of the invention (compound 10) was measured as described in the preceding paragraph, and are depicted in FIG. 3.

SMILES | in vivo conversion of prodrug into active metabolite
CC(C)[C@H](N)C(=O)O[C@H]1CC[C@H](N(c2cc(C#CC(C)(C)C)sc2C(=O)O)C(=O)[C@H]2CC[C@H](C)CC2)CC1 [Compound 1] | in vivo converted into their active metabolites
C[C@@H](N)C(=O)O[C@H]1CC[C@H](N(c2cc(C#CC(C)(C)C)sc2C(=O)O)C(=O)[C@H]2CC[C@H](C)CC2)CC1 [Compound 10] | in vivo converted into the —OH active metabolite
CC(C)C#Cc1cc(N(C(=O)[C@H]2CC[C@H](C)CC2)[C@H]2CC[C@H](OC(=O)[C@H](C)N)CC2)c(C(=O)O)s1 [Compound 11] | in vivo converted into their active metabolites
